From patent US7074778B2, “Asthma associated factors as targets for treating atopic allergies including asthma and related disorders” (Genaera Corporation, priority 1999, dated 2006)
In brackets after ≈: the same amount, converted by molar mass. Like-named read-outs stand apart in the source and are kept apart here.

How the values were obtained:
[1] = rat, in vivo, 1 mg/kg/day
Method: To determine the mechanism by which 3-aminosteroid compounds function to suppress the asthmatic response to allergen, comparative physiologic assays were carried out utilizing the extensively studied Sprague-Dawley rat model (Scaccianoce et al., (1995) Neuroendocrinology 62, 32–38; Hatzinger et al., (1996) Neuroendocrinology 64, 349–356). Animals were administered 1 mg/kg/day of either the corticosteroid Dexamethasone or Compound-B and analyzed at ten hours for corticosterone and ACTH. […] Similar results were found for ACTH levels (>100 fold) supporting the finding that Compound-B is acting by a different mechanism from dexamethasone.

[2] = 28 day tolerance study in Sprague-Dawley rats (weight, spleen); assay type: in vivo, rat; conditions: drug administered for 28 days
[3] = tested on: mitogen or antigen stimulated murine or human lymphocytes; experiment: Lymphocyte aggregation assay (PHA-PMA mitogen stimulated); assay type: cell-based; conditions: Homo sapiens, Lymphocyte, 12 h, aggregates of greater than 100 cells, PHA-PMA stimulation; read-out: Aggregation Assay Minimum Effective Conc.
Method: (§1) Immunomodulatory 3-aminosteroids (FIGS. 3–7 and Table I) were identified in vitro based on their ability to inhibit homo- or hetero-typic aggregation and subsequent proliferation of mitogen or antigen stimulated murine or human lymphocytes. Human or mouse lymphocytes were isolated from peripheral blood by Ficoll-Hypaque as described (Stoeckert et al., (1990) Exp. Hematol. 18. 1164–1170). For mitogen stimulation, 1×10^5 cells per well were plated in varying amounts of 3-aminosteroid compounds and assayed for aggregation and proliferation after twelve hours of stimulation by PHA-PMA mitogens. […] For antigen stimulation, lymphocytes were isolated from BALBc mice which had been sensitized to Aspergillus fumigatus antigen for three weeks and plated at 1×10^5 cells per well with or without 100 units of Aspergillus fulmigatus antigen. Cells were grown for three days and then scored for cellular aggregates and proliferation as described above in the presence or absence of increasing amounts of Compound-B or analogue compounds. […] Similar results were obtained in assays using antigen mediated response to compounds (not shown). […] All of the active compounds shown in Table I as well as rational modifications of these compounds as depicted in FIGS. 8–10 are embodiments of the invention

[4] = tested on: mitogen or antigen stimulated murine or human lymphocytes; experiment: PBMC proliferation assay (tritiated thymidine incorporation); assay type: cell-based; conditions: Homo sapiens, Lymphocyte
Method: as §1

IL-9 = IL-9 expression in mitogen-stimulated lymphocytes (RT-PCR); assay type: cell-based, human; conditions: FIG. 13
Method: Total cellular RNA was extracted after 24 hours from cultured PBMC, murine spleen cells and M07e cells using RNA PCR corekit (Perkin-Elmer, Foster City Calif.) according to manufacturer's instructions. One microgram of RNA from each source was denatured for five minutes at 65° C. and then reverse transcribed into cDNA using a 20 μl reaction mixture containing 50 units of MLV Reverse Transcriptase, one unit per μl RNAse inhibitor. […] oligo d(T)16 primer, 1 mM each dATP, dCTP, dGTP, dTTP, 50 mM KCl, 10 mM Tris-HCl, pH 7.0, 25 mM MgCl2. The reaction mixture was pipetted into thermocycler tubes, placed in a PCR thermal cycler and subjected to one cycle (fifteen minutes at 42° C., five minutes at 99° C. and five minutes at 4° C.). A mock reverse transcription reaction was used as a negative control. […]
Immunomodulatory 3-aminosteroids (FIGS. 3–7 and Table I) were identified in vitro based on their ability to inhibit homo- or hetero-typic aggregation and subsequent proliferation of mitogen or antigen stimulated murine or human lymphocytes. […] Cells were grown for three days and then scored for cellular aggregates and proliferation as described above in the presence or absence of increasing amounts of Compound-B or analogue compounds. […]

D2 naive mice = experiment: Bronchial hyperresponsiveness in D2 naive mice (APTI); assay type: in vivo, mouse; conditions: FIG. 14
Method: (§2) DBA2, C57BL6 or B6D2F1 mice, five to six weeks of age, were obtained from the National Cancer Institute or Jackson Laboratories. Animals were housed in high-efficiency particulate filtered air laminar flow hoods in a virus and antigen free facility and allowed free access to pelleted rodent chow and water for three to seven days prior to experimental manipulation. The animal facilities were maintained at 22° C. and the light:dark cycle is automatically controlled (10:14 hour cycle).
(§3) Phenotyping and efficacy of pretreatment. Animals either received no pretreatment or were sensitized by nasal aspiration of Aspergillus fumigatus antigen to assess the effect on bronchial hyperresponsiveness, bronchoalveolar lavage and serum IgE. Mice were challenged with Aspergillus or saline intranasally (Monday, Wednesday and Friday for three weeks) and phenotyped twenty-four hours after the last dose. The effect of pretreatment by aminosteroids was used to assess the effect of down-regulating the IL-9 pathway in mice. To determine the bronchoconstrictor response, respiratory system pressure was measured at the trachea and recorded before and during exposure to the drug. Mice were anesthetized and instrumented as previously described. (Kleeberger et al., (1990) Am. J. Physiol. 258, L313–320; Levitt et al., (1995) Clin. Exp. Allergy 25, 61–63; Ewart et al., (1995) J. Appl. Physiol. 79, 560–566). Airway responsiveness was measured to one or more of the following: 5-hydroxytryptamine, acetylcholine, atracurium or a substance-P analogue. A simple and repeatable measure of the change in peak inspiratory pressure following bronchoconstrictor challenge was used which has been termed the Airway Pressure Time Index (APTI). The APTI was assessed by the change in peak respiratory pressure integrated from the time of injection until the peak pressure returns to baseline or plateau.
(§4) Active compounds identified in vitro were tested in vivo for their ability to suppress airway hyperresponsiveness, lung eosinophilia and serum Ig levels using assays described above. […]

[5] = tested on: mice sensitized to antigen; experiment: Airway hyperresponsiveness in mice sensitized to Aspergillus fumigatus antigen (APTI); assay type: in vivo, mouse
Method: as §2, §3, §4

eosinophils = experiment: Bronchoalveolar lavage cellular analysis (eosinophilia) in sensitized mice; assay type: in vivo, mouse; conditions: FIG. 16
Excerpt: as §3, with “plateau. […]” for “plateau.”

[6] = tested on: total serum IgG1, IgG2a and IgE; experiment: Serum Ig ELISA in sensitized DBA2J mice; assay type: in vivo, mouse
Method: Samples were centrifuged to separate cells and serum was collected and used to measure total IgG1, IgG2a and IgE levels. Samples not measured immediately were frozen at −20° C.
Serum Igs were measured using an ELISA antibody-sandwich assay. Microtiter plates were coated, 50 μl per well, with rat anti-murine IgG1, IgG2a or IgE antibody (Southern Biotechnology and PharMingen) at a concentration of 2.5 μg/ml in coating buffer of sodium carbonate-sodium bicarbonate with sodium azide. Plates were covered with plastic wrap and incubated at 4° C. for sixteen hours. The plates were washed three times with a wash buffer of 0.05% Tween-20 in phosphate-buffered saline, incubating for five minutes for each wash. Blocking of nonspecific binding sites was accomplished by adding 200 μl per well 5% bovine serum albumin in phosphate-buffered saline, covering with plastic wrap and incubating for two hours at 37° C. After washing three times with wash buffer, duplicate 50 μll test samples were added to the wells. Test samples were assayed after being diluted 1:10, 1:50 and 1:100 with 5% bovine serum albumin in wash buffer. In addition to the test samples, a set of Ig standards (PharMingen) at various liner concentrations in 5% bovine serum albumin in wash buffer, were assayed to generate a standard curve. A blank of no sample or standard was used to zero the plate reader (background). After adding samples and standards, the plate was covered with plastic wrap and incubated for two hours at room temperature. After washing three times with wash buffer, 50 μl of secondary antibody rat anti-murine IgG1, IgG2a or IgE-horseradish peroxidase conjugate was added at a concentration of 250 ng/ml in 5% bovine serum albumin in wash buffer. […] After five to ten minutes the reaction was stopped with 50 μl of 12.5% sulfuric acid and absorbance was measured at 490 nm on a Dynatech® MR5000 plate reader. A standard curve was constructed from the standards with antigen concentration on the x axis (log scale) and absorbance on the y axis (linear scale). […]

[7] = Solubility during work-up; assay type: physicochemical; conditions: 10% acetonitrile/water, acidified with TFA
Method: The reductive aminations were accomplished by similar procedures. The sterol (500 mg for, […] for compounds 7 and 8) was dissolved in 2-propanol (25 mL). Ethylenediamine (1 mL) was added to the flask. The 3-oxo sterol and ethylenediamine were allowed to stir at room temperature for approximately four hours. Sodium cyanoborohydride (250 mg for compound 6 and 100 mg for compounds 7 and 8) was dissolved in 2-propanol (2 mL) and acetic acid (1 mL). The sodium cyanoborohydride solution was added to the reaction flask after evolution of gas had almost ceased (approximately five minutes). In all cases the reaction was complete before the first TLC was taken (less than five minutes). The work-up was the same for all analogues, solution was made basic (pH 10–11) by the addition of carbonate buffer. The aqueous layer was repeatedly extracted with chloroform. The chloroform was removed in vacuo and the crude 3-aminosteroid was dissolved in 10% acetonitrile/water, acidified with TFA. The solubility of compound I was very poor. The solutions were passed through a […] Gelman vacu-cap filter. The 3-aminosteroid isomers were separated by reverse phase chromatography on C18 (Dynamax, 300, 8 μM, 21.6 mm ID, 25 cm/L) using a gradient of acetonitrile in water with 0.1% TFA throughout. […]

[8] = FIG. 11 and FIG. 12, mitogen-stimulated lymphocytes, read-out: IC50 for suppression of lymphocyte aggregation and proliferation
[9] = DBA2J mice sensitized to antigen, FIG. 15

## C[C@@H]1C[C@H]2[C@@H]3CCC4=CC(=O)C=C[C@]4(C)[C@@]3(F)[C@@H](O)C[C@]2(C)[C@@]1(O)C(=O)CO [dexamethasone]
[1]
  suppression of ACTH levels: > 100 fold
  suppression of absolute levels of plasma corticosterone: > 450 fold
[2]
  body weight: weight loss
[2]; FIG. 21
  spleen (splenic atrophy): splenic atrophy

## COC(=O)CC[C@@H](C)C1CCC2C3C(CC[C@@]21C)[C@@]1(C)CC[C@H](NCCN)C[C@H]1C[C@H]3O (stereo partly shown) [Compound-B]
[3]
  minimal effective concentration: 10 µg/mL
[4]; [8]
  IC50: 2.5 µg/mL (≈ 5.57 µM)
IL-9
  expression of IL-9 in mitogen-stimulated lymphocytes: block the expression of IL-9
D2 naive mice
  effective dose compared with Compound-D: effective at a lower dose than Compound-D
D2 naive mice; ip
  suppression of bronchial hyperresponsiveness: effective in suppressing bronchial hyperresponsiveness
[1]
  effect on plasma corticosterone: no significant effect

## COC(=O)CC[C@@H](C)C1CCC2C3C[C@@H](O)[C@H]4C[C@@H](NCCN)CC[C@]4(C)C3CC[C@@]21C (stereo partly shown) [Compound-A]
[3]
  minimal effective concentration: 1 µg/mL
[4]; [8]
  IC50: 0.5 µg/mL (≈ 1.11 µM)
IL-9
  expression of IL-9 in mitogen-stimulated lymphocytes: block the expression of IL-9
[5]; BALBc mice, 2.5 mg/kg administered twice per week, FIG. 19
  block of airway hyperresponsiveness: able to block airway hyperresponsiveness
[5]; [9]
  block of airway hyperresponsiveness: able to block airway hyperresponsiveness
  efficacy compared with dexamethasone: more efficacious than the commonly used corticosteroid, dexamethasone
eosinophils
  eosinophilia (eosinophils in bronchoalveolar lavage): eosinophils were the particular cell type affected
[6]
  serum IgG2a (TH1 associated immunoglobulin): not
[6]; FIG. 17
  total serum IgG1: suppressed
[6]; FIG. 18
  total serum IgE: suppressed

## C[C@@H](CNC(=O)N1CCCC1)C1CCC2C3CC[C@@H]4C[C@@H](NCCN)CC[C@]4(C)C3CC[C@@]21C (stereo partly shown) [Compound-I]
[4]; tritiated thymidine incorporation, read-out: PBMC Proliferation ASSAY IC50
  IC50: 0.23 µg/mL (≈ 0.487 µM)
[7]
  solubility: very poor
